PubChem BioAssay AID212 (DTP/NCI, 2004)
Values joined by “and” are separate entries in the source; they are usually repeats but may differ in a detail not shown here. Identical values can stand only once. Results filed as inconclusive are left out.

Tested on: BDF1 mice, colon carcinoma 38 sc, T/C %
Test: NCI In Vivo Anticancer Drug Screen. Data for tumor model Colon Carcinoma 38 (subcutaneous) in B6D2F1 (BDF1) mice
Details: endpoint: median tumor weight (est.), higher = larger tumour
Outline: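 Ratio of survival or tumor size, compound-treated animals relative to vehicle controls, in tumor-bearing mice.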

[1] = dose: 1.56 mg/kg/injection, schedule: Q07DX002 (ip), vehicle: saline with Tween-80
[2] = dose: 3.12 mg/kg/injection, schedule: Q07DX002 (ip), vehicle: saline with Tween-80
[3] = dose: 6.25 mg/kg/injection, schedule: Q07DX002 (ip), vehicle: saline with Tween-80
[4] = dose: 12.5 mg/kg/injection, schedule: Q07DX002 (ip), vehicle: saline with Tween-80
[5] = dose: 12.5 mg/kg/injection, schedule: Q07DX002 (ip), vehicle: saline
[6] = dose: 25.0 mg/kg/injection, schedule: Q07DX002 (ip), vehicle: saline
[7] = dose: 50.0 mg/kg/injection, schedule: Q07DX002 (ip), vehicle: saline
[8] = dose: 100.0 mg/kg/injection, schedule: Q07DX002 (ip), vehicle: saline
[9] = dose: 50.0 mg/kg/injection, schedule: Q07DX002 (ip), vehicle: saline with Tween-80
[10] = dose: 100.0 mg/kg/injection, schedule: Q07DX002 (ip), vehicle: saline with Tween-80
[11] = dose: 200.0 mg/kg/injection, schedule: Q07DX002 (ip), vehicle: saline with Tween-80
[12] = dose: 25.0 mg/kg/injection, schedule: Q07DX003 (ip), vehicle: saline with Tween-80
[13] = dose: 50.0 mg/kg/injection, schedule: Q07DX003 (ip), vehicle: saline with Tween-80

Compound: O=[N+]([O-])/C=C\c1ccc2c(c1)OCO2
- T/C (dose: 12.5 mg/kg/injection, schedule: Q07DX002 (ip), vehicle: Klucel (hydroxypropylcellulose) (HPC)): 364 % of control
- T/C (dose: 25.0 mg/kg/injection, schedule: Q07DX002 (ip), vehicle: Klucel (hydroxypropylcellulose) (HPC)): 364 % of control
- T/C (dose: 25.0 mg/kg/injection, schedule: Q07DX003 (ip), vehicle: Klucel (hydroxypropylcellulose) (HPC)): 64 % of control and 71 % of control
- T/C (dose: 50.0 mg/kg/injection, schedule: Q07DX002 (ip), vehicle: Klucel (hydroxypropylcellulose) (HPC)): 185 % of control
- T/C (dose: 100.0 mg/kg/injection, schedule: Q07DX002 (ip), vehicle: Klucel (hydroxypropylcellulose) (HPC)): 93 % of control
- T/C (dose: 100.0 mg/kg/injection, schedule: Q07DX003 (ip), vehicle: Klucel (hydroxypropylcellulose) (HPC)): 88 % of control and 92 % of control
- T/C (dose: 200.0 mg/kg/injection, schedule: Q07DX002 (ip), vehicle: Klucel (hydroxypropylcellulose) (HPC)): 77 % of control
- T/C (dose: 200.0 mg/kg/injection, schedule: Q07DX003 (ip), vehicle: Klucel (hydroxypropylcellulose) (HPC)): 56 % of control
- T/C (dose: 400.0 mg/kg/injection, schedule: Q07DX002 (ip), vehicle: Klucel (hydroxypropylcellulose) (HPC)): 102 % of control

Compound: CCCCCCCCCCCCN1C(C)=CS/C1=C\C=C\c1scc(C)[n+]1CCCCCCCCCCCC
- T/C (dose: 0.78 mg/kg/injection, schedule: Q07DX002 (ip), vehicle: saline with Tween-80): 124 % of control
- T/C [1]: 98 % of control
- T/C [2]: 79 % of control
- T/C [3]: 88 % of control
- T/C (dose: 12.0 mg/kg/injection, schedule: Q07DX002 (ip), vehicle: saline with Tween-80): 101 % of control
- T/C [4]: 120 % of control

Compound: O=C(O)C(O)C(O)C1[O][Sb][O]C1C(=O)O (centres undefined)
- T/C [5]: 90 % of control
- T/C [6]: 35 % of control
- T/C [7]: 109 % of control
- T/C [8]: 85 % of control

Compound: COc1cc(NCc2ccc3nc(N)nc(N)c3c2C)cc(OC)c1OC (tested in a mixture with another compound)
- T/C (dose: 105.0 mg/kg/injection, schedule: Q07DX002 (ip), vehicle: water): 86 % of control
- T/C (dose: 157.0 mg/kg/injection, schedule: Q07DX002 (ip), vehicle: water): 100 % of control
- T/C (dose: 236.0 mg/kg/injection, schedule: Q07DX002 (ip), vehicle: water): 75 % of control

Compound: O=C1NC(O)c2ccccc2O1 (centres undefined)
- T/C (dose: 25.0 mg/kg/injection, schedule: Q07DX002 (ip), vehicle: saline with Tween-80): 93 % of control
- T/C (dose: 25.0 mg/kg/injection, schedule: Q07DX002 (ip), vehicle: suspension in saline): 64 % of control
- T/C [9]: 90 % of control
- T/C (dose: 50.0 mg/kg/injection, schedule: Q07DX002 (ip), vehicle: suspension in saline): 113 % of control and 93 % of control
- T/C [10]: 75 % of control
- T/C (dose: 100.0 mg/kg/injection, schedule: Q07DX002 (ip), vehicle: suspension in saline): 60 % of control and 70 % of control
- T/C [11]: 69 % of control
- T/C (dose: 400.0 mg/kg/injection, schedule: Q07DX002 (ip), vehicle: saline with Tween-80): 82 % of control

Compound: CCOC(C)C(/C=N/NC(N)=S)=NNC(N)=S (centres undefined)
- T/C (dose: 12.5 mg/kg/injection, schedule: Q07DX003 (ip), vehicle: saline with Tween-80): 111 % of control
- T/C [12]: 61 % of control
- T/C [13]: 99 % of control
- T/C (dose: 100.0 mg/kg/injection, schedule: Q07DX003 (ip), vehicle: saline with Tween-80): 155 % of control
- T/C (dose: 200.0 mg/kg/injection, schedule: Q07DX003 (ip), vehicle: saline with Tween-80): 73 % of control
- T/C (dose: 400.0 mg/kg/injection, schedule: Q07DX003 (ip), vehicle: saline with Tween-80): 66 % of control

Compound: Cc1c2ccccc2cc2cccc[n+]12
- T/C (dose: 10.0 mg/kg/injection, schedule: Q07DX002 (ip), vehicle: saline): 87 % of control and 96 % of control
- T/C (dose: 20.0 mg/kg/injection, schedule: Q07DX002 (ip), vehicle: saline): 77 % of control
- T/C (dose: 40.0 mg/kg/injection, schedule: Q07DX002 (ip), vehicle: saline): 112 % of control and 94 % of control
- T/C (dose: 80.0 mg/kg/injection, schedule: Q07DX002 (ip), vehicle: saline): 109 % of control

Compound: Cc1cn(C2CC3[O][Sn]([c]4ccccc4)([c]4ccccc4)[O]CC3O2)c(=O)[nH]c1=O (centres undefined)
- T/C [5]: 110 % of control
- T/C [6]: 100 % of control
- T/C [7]: 95 % of control
- T/C [8]: 110 % of control
- T/C (dose: 200.0 mg/kg/injection, schedule: Q07DX002 (ip), vehicle: saline): 99 % of control

Compound: O=C1NC(=O)NC(C(=O)O)N1
- T/C (dose: 56.25 mg/kg/injection, schedule: Q01DX001 (ip), vehicle: DMSO): 90 % of control
- T/C (dose: 56.25 mg/kg/injection, schedule: Q07DX002 (ip), vehicle: DMSO): 122 % of control
- T/C (dose: 112.5 mg/kg/injection, schedule: Q01DX001 (ip), vehicle: DMSO): 101 % of control
- T/C (dose: 112.5 mg/kg/injection, schedule: Q07DX002 (ip), vehicle: DMSO): 121 % of control
- T/C (dose: 225.0 mg/kg/injection, schedule: Q01DX001 (ip), vehicle: DMSO): 97 % of control
- T/C (dose: 225.0 mg/kg/injection, schedule: Q07DX002 (ip), vehicle: DMSO): 75 % of control
- T/C (dose: 450.0 mg/kg/injection, schedule: Q01DX001 (ip), vehicle: DMSO): 97 % of control
- T/C (dose: 450.0 mg/kg/injection, schedule: Q07DX002 (ip), vehicle: DMSO): 101 % of control
- T/C (dose: 900.0 mg/kg/injection, schedule: Q01DX001 (ip), vehicle: DMSO): 71 % of control
- T/C (dose: 900.0 mg/kg/injection, schedule: Q07DX002 (ip), vehicle: DMSO): 108 % of control
- T/C (dose: 1800.0 mg/kg/injection, schedule: Q07DX002 (ip), vehicle: DMSO): 112 % of control

Compound: C=C1C(=O)OC2CC1CCC1(C)OC1CCC(C)=CCCC2(C)O (centres undefined)
- T/C (dose: 3.75 mg/kg/injection, schedule: Q07DX002 (ip), vehicle: Klucel (hydroxypropylcellulose) (HPC)): 155 % of control
- T/C (dose: 7.5 mg/kg/injection, schedule: Q07DX002 (ip), vehicle: Klucel (hydroxypropylcellulose) (HPC)): 155 % of control
- T/C (dose: 30.0 mg/kg/injection, schedule: Q07DX002 (ip), vehicle: Klucel (hydroxypropylcellulose) (HPC)): 99 % of control
- T/C (dose: 60.0 mg/kg/injection, schedule: Q07DX002 (ip), vehicle: Klucel (hydroxypropylcellulose) (HPC)): 123 % of control

Compound: C=CC(=O)N1CN(C(=O)C=C)CN(C(=O)C=C)C1
- T/C [1]: 82 % of control
- T/C (dose: 1.56 mg/kg/injection, schedule: Q07DX002 (ip), vehicle: saline): 74 % of control
- T/C [2]: 85 % of control
- T/C (dose: 3.12 mg/kg/injection, schedule: Q07DX002 (ip), vehicle: saline): 110 % of control
- T/C [3]: 104 % of control
- T/C (dose: 6.25 mg/kg/injection, schedule: Q07DX002 (ip), vehicle: saline): 90 % of control
- T/C [4]: 120 % of control

Compound: CCC[P+](c1ccccc1)(c1ccccc1)c1ccccc1
- T/C (dose: 3.12 mg/kg/injection, schedule: Q07DX003 (ip), vehicle: saline with Tween-80): 114 % of control and 98 % of control
- T/C (dose: 6.25 mg/kg/injection, schedule: Q07DX003 (ip), vehicle: saline with Tween-80): 96 % of control
- T/C [12]: 76 % of control
- T/C [13]: 73 % of control

Compound: C[C@@H]1C[C@@H]([C@H](O)CC2CC(=O)NC(=O)C2)C(=O)[C@@H](C)C1
- T/C [9]: 162 % of control
- T/C [10]: 90 % of control
- T/C [11]: 60 % of control
